# Measured values taken from article PMC9928118, “Funneling modulatory peptide design with generative models: Discovery and characterization of disruptors of calcineurin protein-protein interactions” (PLOS Computational Biology, 2023).
# Test system: GST-tagged Cn
# Assay: PEPperPRINT peptide microarray binding assay with GST-tagged Cn
# Outline: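 Qualitative binding: peptides printed on a PEPperPRINT microarray were incubated overnight at 4 °C with 1 mg/ml GST-tagged Cn, then detected with Alexa-Fluor 647 anti-GST antibody. Log fluorescence was baseline-corrected, averaged over duplicate spots, Z-normalized and averaged across five repeats.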
# [1] = max over the chip locations listed for the peptide (two spots)
# [2] = mean over the chip locations listed for the peptide (two spots)
# [3] = GST-tagged Cn, max over the chip locations
# [4] = GST-tagged Cn, mean over the chip locations
# [5] = GST-tagged Cn, max over the spots on the chip (two locations)
# [6] = GST-tagged Cn, mean over the spots on the chip (two locations)
# [7] = GST-tagged Cn, max over the chip spots listed under Location on chip
# [8] = GST-tagged Cn, mean over the chip spots listed under Location on chip
# [9] = max over the spots listed under Location on chip
# [10] = mean over the spots listed under Location on chip
# [11] = GST-tagged Cn, max over the spots named in Location on chip
# [12] = GST-tagged Cn, mean over the spots named in Location on chip
sequence,measurement,setting,value
GSDDCPNVIVHIPHED [SeqRBM_9050],Chip Fluorescence (max),[1],5.16
same,Chip Fluorescence (mean),[2],0.1112
STSSLPTFSFSSPLPT [SeqRBMlowT_898],Chip Fluorescence (max),[3],-0.2197
same,Chip Fluorescence (mean),[4],-1.424
LTDAAPEVVVSKPEHN [SeqRBMlowT_7696],Chip Fluorescence (max),[5],1.26
same,Chip Fluorescence (mean),[6],0.2646
TFWTNPQFKVKLEEVD [SeqRBMlowT_284],Chip Fluorescence (max),[5],1.062
same,Chip Fluorescence (mean),[6],-0.1705
TTLVIPQMRLTSEATF [SeqRBM_1117],Chip Fluorescence (max),[1],5.611
same,Chip Fluorescence (mean),[2],1.324
PKEDLPVITIDPASPQ [SeqNHE1_Pan_troglodytes],Chip Fluorescence (max),[7],0.9606
same,Chip Fluorescence (mean),[8],-0.5019
SSAAPPAINIDFAPTN [SeqRBMlowT_5045],Chip Fluorescence (max),[3],-0.1972
same,Chip Fluorescence (mean),[4],-1.194
ADEAIPEITITPAELP [SeqRBMlowT_424],Chip Fluorescence (max),[9],2.999
same,Chip Fluorescence (mean),[10],0.8947
STSGTFPQTESSHKKQ [SeqRBMlowT_5831],Chip Fluorescence (max),[11],1.58
same,Chip Fluorescence (mean),[12],0.09302
KAYMCPFMQFIDGGRK [SeqRBMlowT_522],Chip Fluorescence (max),[9],2.8656
same,Chip Fluorescence (mean),[10],1.3266
TFWTNPQFRLKIPQVD [SeqRBMlowT_93],Chip Fluorescence (max),[9],3.328
same,Chip Fluorescence (mean),[10],1.497
KAYMCPAVSFQDGGRR [SeqRBMlowT_4017],Chip Fluorescence (max),[11],1.6
same,Chip Fluorescence (mean),[12],-0.3289
TFWTNPQYRITLEEED [SeqRBMlowT_1109],Chip Fluorescence (max),[9],3.384
same,Chip Fluorescence (mean),[10],0.265
GQSISRNIRPNTFSPL [Seqshuffled_9432],Chip Fluorescence (max),[3],0.04391
same,Chip Fluorescence (mean),[4],-1.286
STSSLPTFSFSSPPPT [SeqRBMlowT_3483],Chip Fluorescence (max),[3],-1.1866
same,Chip Fluorescence (mean),[4],-2.157
SAASFRIKQIEFMVSA [Seqshuffled_4815],Chip Fluorescence (max),[7],0.7621
same,Chip Fluorescence (mean),[8],-0.8277
KSKLIPKLSIQSPVRH [SeqJHY_Macaca_mulatta],Chip Fluorescence (max),[5],1.129
same,Chip Fluorescence (mean),[6],-1.294
AQMAPPAINIDFAPTN [SeqRBMlowT_7215],Chip Fluorescence (max),[7],0.4327
same,Chip Fluorescence (mean),[8],-0.8945
APSKITEVVVHECEVL [SeqRBM_4402],Chip Fluorescence (max),[11],1.576
same,Chip Fluorescence (mean),[12],-0.4054
TFWTNPQFKITLTDPD [SeqRBMlowT_9027],Chip Fluorescence (max),[5],1.278
same,Chip Fluorescence (mean),[6],-0.7291
REYINPKMHFHFLNTV [SeqRBM_9087],Chip Fluorescence (max),[11],1.764
same,Chip Fluorescence (mean),[12],-0.3424
KKMAPPAINIDFAPTN [SeqRBMlowT_341],Chip Fluorescence (max),[11],1.339
same,Chip Fluorescence (mean),[12],-0.05324
TFWTNPQYKIKLEDPD [SeqRBMlowT_629],Chip Fluorescence (max),[7],0.8637
same,Chip Fluorescence (mean),[8],-0.07489
FLGRGPQLEDFDPSRD [Seqshuffled_9338],Chip Fluorescence (max),[1],4.229
same,Chip Fluorescence (mean),[2],0.4051
TDHMNPQITISSKEND [SeqRBM_3457],Chip Fluorescence (max),[5],1.164
same,Chip Fluorescence (mean),[6],0.5231
VFWANPQFEVTLREDD [SeqRBM_5060],Chip Fluorescence (max),[11],1.773
same,Chip Fluorescence (mean),[12],0.03485
ASALSPRIEITPSHEL [SeqNFATC1_Alligator_mississippiensis],Chip Fluorescence (max),[9],3.085
same,Chip Fluorescence (mean),[10],0.192
KVMAVPRISRSPTQVL [SeqRBM_6937],Chip Fluorescence (max),[11],1.835
same,Chip Fluorescence (mean),[12],0.723
LNLKIPIVLLNIISAI [SeqRBM_9387],Chip Fluorescence (max),[11],1.375
same,Chip Fluorescence (mean),[12],0.2818
KSKAAPSIVIHIPEEA [SeqRBM_8661],Chip Fluorescence (max),[11],1.362
same,Chip Fluorescence (mean),[12],0.2601
GPQDIPEVVVSPPEDD [SeqSLC4A7_Austrofundulus_limnaeus],Chip Fluorescence (max),[1],6.762
same,Chip Fluorescence (mean),[2],1.072
RQPGTFLLTLRGHKKQ [SeqRBMlowT_6149],Chip Fluorescence (max),[7],0.9861
same,Chip Fluorescence (mean),[8],0.123
TFWTNPQFKVTLEEPD [SeqRBMlowT_2957],Chip Fluorescence (max),[5],1.208
same,Chip Fluorescence (mean),[6],-0.4648
KDMLIPRPSSQDSGAY [SeqRBM_5587],Chip Fluorescence (max),[11],1.626
same,Chip Fluorescence (mean),[12],-0.4019
HVSSSPDVTLKIPQHR [SeqRBMlowT_2187],Chip Fluorescence (max),[7],0.8915
same,Chip Fluorescence (mean),[8],-0.5849
SSQGSSRPARSPERTV [SeqRBM_2387],Chip Fluorescence (max),[7],0.4699
same,Chip Fluorescence (mean),[8],-0.1808
STSSLPTFSFSSPQST [SeqRBMlowT_3930],Chip Fluorescence (max),[3],-0.1298
same,Chip Fluorescence (mean),[4],-1.588
TFWSNPQFKITLDEPD [SeqRBMlowT_5518],Chip Fluorescence (max),[11],1.348
same,Chip Fluorescence (mean),[12],-0.7061
VACITWAAMLIIFSMV [Seqrandom_9980],Chip Fluorescence (max),[7],0.9057
same,Chip Fluorescence (mean),[8],-0.476
KAYMCPFMQFIEGGRR [SeqRBMlowT_535],Chip Fluorescence (max),[7],0.9778
same,Chip Fluorescence (mean),[8],-1.603
QRFFCVRYDVNPCINW [Seqrandom_9944],Chip Fluorescence (max),[1],3.709
same,Chip Fluorescence (mean),[2],0.2678
TFWTNPQFRLKLVDVD [SeqRBMlowT_5534],Chip Fluorescence (max),[1],3.886
same,Chip Fluorescence (mean),[2],0.4656
KKMAPPCISVHPPEED [SeqRBMlowT_5025],Chip Fluorescence (max),[7],0.441
same,Chip Fluorescence (mean),[8],-1.335
AGCTVNNYSTNFAEND [Seqshuffled_9821],Chip Fluorescence (max),[9],2.618
same,Chip Fluorescence (mean),[10],0.6288
TFHINPQLHLIVSDAD [SeqCAPN11_Daphnia_magna],Chip Fluorescence (max),[3],-0.5586
same,Chip Fluorescence (mean),[4],-0.9234
NVLRISSARPDNRGVY [SeqCEACAM5_Musca_domestica],Chip Fluorescence (max),[11],1.598
same,Chip Fluorescence (mean),[12],0.6708
TFWTNPQYVVSLEEPD [SeqRBMlowT_5673],Chip Fluorescence (max),[7],0.9389
same,Chip Fluorescence (mean),[8],0.02031
TFWTNPQFRITLEEED [SeqRBMlowT_658],Chip Fluorescence (max),[1],4.839
same,Chip Fluorescence (mean),[2],1.41
KMAKFLINLSAEKSVM [Seqrandom_9965],Chip Fluorescence (max),[5],1.232
same,Chip Fluorescence (mean),[6],-0.1213
GTESTPSVVVHVCESE [SeqRCN1_Pongo_abelii],Chip Fluorescence (max),[1],3.823
same,Chip Fluorescence (mean),[2],1.0203
SSEYQESLCIENFSAN [SeqRBM_3304],Chip Fluorescence (max),[11],1.766
same,Chip Fluorescence (mean),[12],0.6423
TFWMNPQFRITLDDPD [SeqRBMlowT_69],Chip Fluorescence (max),[9],3.266
same,Chip Fluorescence (mean),[10],0.639
PSLFPDALGLGQFSLS [SeqCRZ1_Aureobasidium_pullulans],Chip Fluorescence (max),[5],1.272
same,Chip Fluorescence (mean),[6],0.42
TFWTNPQFRIKLEEVD [SeqRBMlowT_2987],Chip Fluorescence (max),[1],3.672
same,Chip Fluorescence (mean),[2],2.469
LKDESPEVRLNIISKL [SeqRBMlowT_3831],Chip Fluorescence (max),[5],1.167
same,Chip Fluorescence (mean),[6],0.2257
TFWSNPQYKITLEEPD [SeqRBMlowT_9677],Chip Fluorescence (max),[9],3.254
same,Chip Fluorescence (mean),[10],0.9673
HSKLIPKLSVQSPVHH [SeqRBMlowT_1714],Chip Fluorescence (max),[11],1.671
same,Chip Fluorescence (mean),[12],-0.5381
ADEAQPGIVVHVCELP [SeqRBMlowT_119],Chip Fluorescence (max),[11],1.734
same,Chip Fluorescence (mean),[12],-0.1242
RTNLNPFFFFTSDSKN [SeqRBM_2819],Chip Fluorescence (max),[3],-0.6014
same,Chip Fluorescence (mean),[4],-1.251
RCISAYKLDSVMMDPS [Seqrandom_9957],Chip Fluorescence (max),[1],3.463
same,Chip Fluorescence (mean),[2],0.1448
KKMAPPCINIDFAPEN [SeqRBMlowT_2474],Chip Fluorescence (max),[11],1.579
same,Chip Fluorescence (mean),[12],0.1538
TFWTNPQFRLKLEEVD [SeqRBMlowT_5628],Chip Fluorescence (max),[1],7.691
same,Chip Fluorescence (mean),[2],2.027
GVPETPSRPVDPTAPS [SeqRBM_5086],Chip Fluorescence (max),[3],-0.4316
same,Chip Fluorescence (mean),[4],-1.3551
